{"source": "paper PMC7417534", "about": "“Cytochrome P450 inhibition potential and initial genotoxic evaluation of 14-O-[(4,6-diaminopyrimidine-2-yl)thioacetyl] mutilin” (Scientific Reports, 2020)", "key": {"S. typhimurium TA97": {"system": "S. typhimurium TA97", "assay": "Ames test, strain TA97", "type": "cell-based, Salmonella typhimurium", "conditions": "− S9; positive control, 10 μg/plate", "source_text": "(§1) S. typhimurium strains TA97, TA98, TA100, TA102 and TA1535 were stored and maintained as provided in the standard protocol. Each of the strains was checked for their genetic integrity prior to the experiment, and tested for biotin dependence, histidine dependence, biotin and histidine dependence, rfa marker (crystal violet) and presence of the plasmid pKM101 (ampicillin resistance) or pAQ1 (tetracycline resistance). Different strains were used to identify different types of mutations.\n(§2) The test was carried out at five different concentrations of DPTM. […] Then 1 mL solution was diluted with distilled water by two fold. […] The negative control used in this experiment was 1 mL DMSO which was directly incorporated into 9 mL melted top agar.\n(§3) The Ames test of DPTM was conducted as described in the literatures[42],[43] with some modifications. Briefly, 1 mL of strain was inoculated into 5 mL of nutrient broth, followed by incubating overnight at 37 °C. The mixture comprised respective strains, drug, negative and positive controls with the S9 for testing in the presence of metabolic activation system. For testing without S9, 1 × phosphate buffer saline (PBS, pH 7.4) replaced the S9 mix. The obtained mixtures were added into the tube, mixed well and incubated at 37 °C for 20 min. Then, the top agar was melted and 2 mL of this melted top agar was added to each tube and gently mixed. […] The results were expressed as the number of revertant colonies per plate. The experiments were performed in triplicate."}, "CYP3A4": {"system": "CYP3A4", "conditions": "cited from earlier work"}, "S. typhimurium TA100": {"system": "S. typhimurium TA100", "conditions": "− S9; positive control, 5 μg/plate", "source_text": "as §1, §2, §3"}, "S. typhimurium TA1535": {"system": "S. typhimurium TA1535", "conditions": "− S9; positive control, 5 μg/plate", "source_text": "as §1, §2, §3"}}, "note": "Where two headings read alike, the source gives them in different places."}
{"smiles": "Nc1ccc([N+](=O)[O-])cc1N", "note": "[4-nitro-o-phenylenediamine, reference compound]", "values": [{"measurement": "revertant colonies per plate, TA97", "setting": "S. typhimurium TA97", "result": "803 ± 37", "unit": "CFU"}]}
{"smiles": "C=C[C@]1(C)C[C@@H](OC(=O)CSc2nc3ccc(N)cc3[nH]2)[C@]2(C)[C@H](C)CC[C@]3(CCC(=O)[C@H]32)[C@@H](C)[C@@H]1O", "note": "[14-O-((5-Amino-benzimidazole-2-yl)thioacetyl) mutilin]", "values": [{"measurement": "IC50", "setting": "CYP3A4; read-out: IC50 value, CYP3A4 inhibition", "result": 1690, "unit": "nM"}]}
{"smiles": "C=C[C@]1(C)C[C@@H](OC(=O)CS[C@@H]2CC[C@@H](N)C[C@H]2O)[C@]2(C)[C@H](C)CC[C@]3(CCC(=O)[C@H]32)[C@@H](C)[C@@H]1O", "note": "[Lefamulin]", "values": [{"measurement": "IC50", "setting": "CYP3A4; read-out: IC50, inhibition for CYP3A4", "result": "< 5000", "unit": "nM"}]}
{"smiles": "[N-]=[N+]=[N-].[Na+]", "note": "[sodium azide, reference compound]", "values": [{"measurement": "revertant colonies per plate, TA100", "setting": "S. typhimurium TA100", "result": "984 ± 59", "unit": "CFU"}, {"measurement": "revertant colonies per plate, TA1535", "setting": "S. typhimurium TA1535", "result": "774 ± 20", "unit": "CFU"}]}
